Test results as given in US5096918A, “Isoindoline nitromethane derivatives” (Imperial Chemical Industries PLC, priority 1989, dated 1992).

Molecular target: T1, aldose reductase (Bos taurus, UniProt P16116)
T1 construct: isolated in known manner from bovine lenses; from tissue; host or cells: bovine lens
Experiment: in vitro inhibition of partially purified aldose reductase (reduction of glucose to sorbitol, spectrophotometric)
Assay type: biochemical
Conditions: partially purified enzyme from bovine lenses
Experimental: Thus, partially purified aldose reductase is isolated in known manner from bovine lenses. The percentage inhibition of this enzyme's ability in vitro to catalyse the reduction of aldoses to polyhydric alcohols, and particularly to reduce glucose to sorbitol, caused by a test compound is then determined using standard spectrophotometric methods.

| Compound | IC50 |
| --- | --- |
| O=[N+]([O-])CS(=O)(=O)N1CCCCC1 [Example 1, N-(nitromethylsulphonyl)piperidine] | 330 nM |
| O=[N+]([O-])CS(=O)(=O)N1CCOCC1 [N-(nitromethylsulphonyl)morpholine] | 880 nM |
